In US4551547A, “Biocidal 2-aryl-1, 3-cyclopentanedione enol ester compounds” (Union Carbide Corporation, priority 1983, dated 1985):
≈ marks a conversion by molar mass, not a printed value.

Assays:
[1] = tested on: two-spotted mite (adults and nymphal stages); test: Mite Foliage Spray Test (adults and nymphs); format: in vivo, Tetranychus urticae (Koch); parameters: key to Miticidal, Adult: A: Excellent Control; B: Partial Control; No Control; details: for Miticidal, Adult: Table II, mortality count after four days; for LC50: Tetranychus urticae, foliar, Table III, ppm required for a 50 percent kill of mites, read-out: Miticidal LD50, Adult
Description: Suspensions of the test compounds were prepared by dissolving one gram of compound in 50 milliliters of acetone in which had been dissolved 0.1 gram (10 percent of the weight of compound) of an alkylphenoxyethanol sufactant, as an emulsifying or dispersing agent. The resulting solution was mixed into 160 milliliters of water to give roughly 200 milliliters of a suspension containing the compound in finely divided form. The thus prepared stock suspension contained 0.5 percent by weight of compound. The test concentrations employed in the tests described below were obtained by diluting the stock suspension with water. The test procedures were as follows: Adults and nymphal stages of the two-spotted mite (Tetranychus urticae (Koch)), reared on Tender-green beam plants at 80±5° F. and 50±5 percent relative humidity, were the tests organisms. Infested leaves from a stock culture were placed of the primary leaves of two bean plants six to eight inches in height, growing in a two-and-a-half inch clay pot. 150-200 Mites, a sufficient number for testing, transferred from the excised leaves to the fresh plants in a period of twenty-four hours. Following the twenty-four hour transfer period, the excised leaves were removed from the infested plants. The test compounds were formulated by diluting the stock suspension with water to provide suspensions containing the desired amount of test compound per million parts of final formulation. The potted plants (one pot per compound) were placed on a revolving turntable and sprayed with 100-110 milliliters of tests compound formulation by use of a DeVilbis spray gun set at 40 psi, air pressure. This application, which lasted 30 seconds, was sufficient to wet the plants to run-off. As a control, 100-110 milliliters of a water solution containing acetone and emulsifier in the same concentrations as the test compound formulation, but containing no test compound, were also sprayed on infested plants. The sprayed plants were held at 80±5° F. and 50±5 percent relative humidity for four days, after which, a mortality count of motile forms was made on the leaves of the test plants. Any individual which was capable of locomotion upon prodding was considered living. In these tests the pesticidal activity of the compounds against mites and mite eggs was rated as follows: Tests were conducted in accordance with the procedures given at pages 17 to 21 supra. The results are expressed in the same manner as used in Table II, except with respect to miticidal activity. For mite adult and mite egg comparison purposes, results are given in parts per million (ppm) required for a 50 percent kill of mites or eggs, respectively.

Mustard = test: Preliminary herbicide seed germination test (pre-emergent), mustard; format: in vivo, Brassica pincea var. foliosa (Florida broadleaf); parameters: key: 5: no seedling emerged; 4: few seedlings emerged and/or very severe stunting; 3: moderate reduction in stand and/or moderate stunting.; 2: very slight reduction in stand and/or slight stunting; 1: no injury, seedlings appear no different with respect to stand or growth than untreated controls; details: ten to twelve days after application
Description: (§1) Suspensions of the test compounds were prepared by dissolving one gram of compound in 50 milliliters of acetone in which had been dissolved 0.1 gram (10 percent of the weight of compound) of an alkylphenoxyethanol sufactant, as an emulsifying or dispersing agent. The resulting solution was mixed into 160 milliliters of water to give roughly 200 milliliters of a suspension containing the compound in finely divided form. The thus prepared stock suspension contained 0.5 percent by weight of compound. The test concentrations employed in the tests described below were obtained by diluting the stock suspension with water. The test procedures were as follows:
(§2) The following seeds were used in this test:
Mustard--Brassica pincea var. foliosa (Florida broadleaf)
(§3) Two […] mixtures were prepared as follows:
(§4) Each of the above mixtures was rolled separately in 5 gallon containers for approximately one-half hour on ball mill to insure uniform mixing of seeds and soil. For each compound four 3-inch pots were filled with soil to within 11/2 inches of top of pots. To two of these pots were added 70 cc. of Mixture I. To the remaining 2 pots were added 70 cc. of Mixture II. The seed-soil mixture was tamped firmly, and the pots were removed to the greenhouse and watered lightly. About 2 hours after planting, 25 milliliters of the test formulation were added to one pot containing Mixture I and one pot containing Mixture II. An equal volume of a water solution containing acetone and an emulsifier in the same concentration as the herbicidal mixture but without the candidate herbicide was also added to each of the soil-seed mixtures. These pots are used as check or control units. The test compounds were formulated by diluting the stock suspension with water to obtain the desired concentration of the compound in parts per million of the final formulation. Each compound was tested at the same concentration. […] Ratings were made according to the following designations: […]

Crabgrass = test: Preliminary herbicide seed germination test (pre-emergent), crabgrass; format: in vivo, Digitaria sanguinalis; parameters: key: 5: no seedling emerged; 4: few seedlings emerged and/or very severe stunting; 3: moderate reduction in stand and/or moderate stunting.; 2: very slight reduction in stand and/or slight stunting; 1: no injury, seedlings appear no different with respect to stand or growth than untreated controls; details: ten to twelve days after application
Description: as §1, §2
Crabgrass--Digitaria sanguinalis
as §3, §4

Perennial rye grass = test: Preliminary herbicide seed germination test (pre-emergent), perennial rye grass; format: in vivo, Solium perenne; parameters: key: 5: no seedling emerged; 4: few seedlings emerged and/or very severe stunting; 3: moderate reduction in stand and/or moderate stunting.; 2: very slight reduction in stand and/or slight stunting; 1: no injury, seedlings appear no different with respect to stand or growth than untreated controls; details: ten to twelve days after application
Description: as §1, §2
Perennial rye grass--Solium perenne
as §3, §4

Tomato = test: Post-emergent herbicidal test, tomato; format: in vivo; parameters: key: 1: no perceptible injury; 2: intermediate degrees of injury; 3: intermediate degrees of injury; 4: intermediate degrees of injury; 5: the plant was dead; details: 2500 parts per million, after ten days; for Post-emergent Herbicidal, Tomato: Table II; for Post Emergent Herbicidal, Tomato: Table III
Description: as §1
(§5) Experiments were also conducted to determine the phytotoxicity of representative compositions with respect to healthy fresh plants. Solutions of the compounds were prepared as described above to provide a concentration of 2500 parts per million of the test compound. The test plants were sprayed in accordance with the procedure described above for the Mite Foliage Spray Test so as to deliver approximately 100 milliliters of test solutions to the leaves of each plant tested. The sprayed plants and controls were set aside for approximately one hour to allow the solutions to dry and were then placed in the greenhouse. After ten days the plants were visually inspected to determine the extent of foliage injury. A rating of 1 indicates no perceptible injury; 5 indicates the plant was dead and ratings of 2, 3 and 4 indicate intermediate degrees of injury based upon the number and extent to which leaves were injured.

Corn = test: Post-emergent herbicidal test, corn; format: in vivo; parameters: key: 1: no perceptible injury; 2: intermediate degrees of injury; 3: intermediate degrees of injury; 4: intermediate degrees of injury; 5: the plant was dead; details: 2500 parts per million, after ten days; for Post-emergent Herbicidal, Corn: Table II; for Post Emergent Herbicidal, Corn: Table III
Description: as §1, §5

Soybean = test: Post-emergent herbicidal test, soybean; format: in vivo; parameters: key: 1: no perceptible injury; 2: intermediate degrees of injury; 3: intermediate degrees of injury; 4: intermediate degrees of injury; 5: the plant was dead; details: 2500 parts per million, after ten days; for Post-emergent Herbicidal, Soybean: Table II; for Post Emergent Herbicidal, Soybean: Table III
Description: as §1, §5

Cotton = test: Post-emergent herbicidal test, cotton; format: in vivo; parameters: key: 1: no perceptible injury; 2: intermediate degrees of injury; 3: intermediate degrees of injury; 4: intermediate degrees of injury; 5: the plant was dead; details: 2500 parts per million, after ten days; for Post-emergent Herbicidal, Cotton: Table II; for Post Emergent Herbicidal, Cotton: Table III
Description: as §1, §5

Compound | Miticidal, Adult [1] | Pre-emergent Herbicidal, Mustard (Mustard; Table II) | Pre-emergent Herbicidal, Crabgrass (Crabgrass; Table II) | Pre-emergent Herbicidal, Rye (Perennial rye grass; Table II) | Post-emergent Herbicidal, Tomato (Tomato) | Post-emergent Herbicidal, Corn (Corn) | Post-emergent Herbicidal, Soybean (Soybean) | Post-emergent Herbicidal, Cotton (Cotton) | LC50 [1] [mg/L] | Pre-emergent Herbicidal, Mustard (Mustard; Table III) | Pre-emergent Herbicidal, Crabgrass (Crabgrass; Table III) | Pre-emergent Herbicidal, Rye (Perennial rye grass; Table III) | Post Emergent Herbicidal, Tomato (Tomato) | Post Emergent Herbicidal, Corn (Corn) | Post Emergent Herbicidal, Soybean (Soybean) | Post Emergent Herbicidal, Cotton (Cotton)
CCCCCCCCCC(=O)OC1=C(c2ccccc2C)C(=O)C2CCCCC12 (stereo not shown) [Compound 23] | A | 3 | 3 | 5 | 1 | 5 | 3 | 3 | – | – | – | – | – | – | – | –
Cc1ccccc1C1=C(OC(=O)C(C)(C)C)C2CCCCC2C1=O (stereo not shown) [drawing 24] | – | – | – | – | – | – | – | – | 15 (≈ 46 µM) | 3 | 3 | 5 | 1 | 5 | 3 | 3
Cc1ccccc1C1=C(OC(=O)C(C)(C)C)C2CCCCC2C1=O (stereo not shown) [Compound 22] | A | 3 | 3 | 5 | 1 | 5 | 3 | 3 | – | – | – | – | – | – | – | –
CCCCCCCCCCCCCCCC(=O)OC1=C(c2cc(C)ccc2C)C(=O)C(C)C1 (stereo not shown) [Compound 18] | A | 1 | 1 | 4 | 2 | 3 | 2 | 2 | – | – | – | – | – | – | – | –
CC(=O)OC1=C(c2cc(C)ccc2C)C(=O)CC1 [Compound 11] | A | 3 | 1 | 4 | 3 | 2 | 2 | 2 | – | – | – | – | – | – | – | –
CCCCC(CC)C(=O)OC1=C(c2cc(C)ccc2C)C(=O)CC1 (stereo not shown) [Compound 13] | A | 1 | 1 | 1 | 2 | 2 | 3 | 3 | – | – | – | – | – | – | – | –
CCCCC(CC)C(=O)OC1=C(c2ccccc2C)C(=O)C2CCCCC12 (stereo not shown) [Compound 21, 3-(2-Ethylhexanoyloxy)-2-(2'-methylphenyl)-4,5,6,7,8,9-hexahydro-2-indenone] | A | 1 | 2 | 3 | 1 | 5 | 2 | 2 | – | – | – | – | – | – | – | –
CCCCCCCCCC(=O)OC1=C(c2cc(C)ccc2C)C(=O)c2ccccc21 [reference compound] | – | – | – | – | – | – | – | – | 500 (≈ 1240 µM) | 1 | 1 | 1 | 1 | 1 | 0 | 1
CC(=O)OC1=C(c2cc(C)ccc2C)C(=O)C2CCCCC12 (stereo not shown) [Compound 28] | A | 1 | 2 | 3 | 1 | 3 | 2 | 1 | – | – | – | – | – | – | – | –
CC(=O)OC1=C(c2ccccc2C)C(=O)C2CCCCC12 (stereo not shown) [Compound 19, 3-acetoxy-2-(2'-methylphenyl)-4,5,6,7,8,9-hexahydro-2-indenone] | A | 3 | 3 | 3 | 2 | 5 | 3 | 2 | – | – | – | – | – | – | – | –
CCCCC(CC)C(=O)OC1=C(c2ccccc2C)C(=O)CC1 (stereo not shown) [Compound 7] | A | 1 | 3 | 5 | 2 | 2 | 2 | 2 | – | – | – | – | – | – | – | –
Cc1ccccc1C1=C(OC(=O)C(C)(C)C)c2ccccc2C1=O [reference compound] | – | – | – | – | – | – | – | – | 100 (≈ 312 µM) | 2 | 2 | 2 | 1 | 1 | 0 | 1
CCCCC(CC)C(=O)OC1=C(c2ccc(C)cc2C)C(=O)C2CCCCC12 (stereo not shown) [Compound 26, 3-(2-ethylhexanoyloxy)-2-(2',4'-dimethylphenyl)-4,5,6,7,8,9-hexahydro-2-indenone] | A | 1 | 1 | 5 | 2 | 5 | 2 | 2 | – | – | – | – | – | – | – | –
O=C1CCC(OC(=O)c2ccccc2)=C1c1ccccc1Cl [Compound 2] | A | 1 | 3 | 4 | 2 | 3 | 2 | 2 | – | – | – | – | – | – | – | –
